Structures can show the parent of a compound that is named as a salt.
Experiments:
[1] = Metabolic stability in liver microsomes, HLM; details: 1 μM, NADPH
Description: (§1) The microsomal suspension was prepared by adding liver microsomes to 100 mM potassium phosphate buffer (pH7.4) to give a final protein concentration of 0.5 mg/mL. The stock solution of NCE (10 mM in DMSO) was added to the microsomes to provide a final concentration of 1 μM. […] Samples were vortexed and centrifuged at 5,000 rpm for 10 min to remove proteins. Supernatant were analyzed on LC-MS/MS.

[2] = test system: MM1S; assay: Anticancer activity: Alamar Blue assay, MM1S; assay type: cell-based; details: Homo sapiens, MM1.S, read-out: MM1S EC50
[3] = Metabolic stability in liver microsomes, MLM; details: 1 μM, NADPH
Description: as §1

[4] = target: HDAC6 human recombinant enzyme (Homo sapiens (Human), UniProt Q9UBN7); assay: Histone Deacetylase Assay (BPS Biosciences), HDAC6; assay type: biochemical
Description: Histone Deacetylase Assay (BPS Biosciences)
Histone deacetylase assay was done as per manufacturer's instructions.

HDAC6 human recombinant enzyme, sequence (Q9UBN7 whole entry): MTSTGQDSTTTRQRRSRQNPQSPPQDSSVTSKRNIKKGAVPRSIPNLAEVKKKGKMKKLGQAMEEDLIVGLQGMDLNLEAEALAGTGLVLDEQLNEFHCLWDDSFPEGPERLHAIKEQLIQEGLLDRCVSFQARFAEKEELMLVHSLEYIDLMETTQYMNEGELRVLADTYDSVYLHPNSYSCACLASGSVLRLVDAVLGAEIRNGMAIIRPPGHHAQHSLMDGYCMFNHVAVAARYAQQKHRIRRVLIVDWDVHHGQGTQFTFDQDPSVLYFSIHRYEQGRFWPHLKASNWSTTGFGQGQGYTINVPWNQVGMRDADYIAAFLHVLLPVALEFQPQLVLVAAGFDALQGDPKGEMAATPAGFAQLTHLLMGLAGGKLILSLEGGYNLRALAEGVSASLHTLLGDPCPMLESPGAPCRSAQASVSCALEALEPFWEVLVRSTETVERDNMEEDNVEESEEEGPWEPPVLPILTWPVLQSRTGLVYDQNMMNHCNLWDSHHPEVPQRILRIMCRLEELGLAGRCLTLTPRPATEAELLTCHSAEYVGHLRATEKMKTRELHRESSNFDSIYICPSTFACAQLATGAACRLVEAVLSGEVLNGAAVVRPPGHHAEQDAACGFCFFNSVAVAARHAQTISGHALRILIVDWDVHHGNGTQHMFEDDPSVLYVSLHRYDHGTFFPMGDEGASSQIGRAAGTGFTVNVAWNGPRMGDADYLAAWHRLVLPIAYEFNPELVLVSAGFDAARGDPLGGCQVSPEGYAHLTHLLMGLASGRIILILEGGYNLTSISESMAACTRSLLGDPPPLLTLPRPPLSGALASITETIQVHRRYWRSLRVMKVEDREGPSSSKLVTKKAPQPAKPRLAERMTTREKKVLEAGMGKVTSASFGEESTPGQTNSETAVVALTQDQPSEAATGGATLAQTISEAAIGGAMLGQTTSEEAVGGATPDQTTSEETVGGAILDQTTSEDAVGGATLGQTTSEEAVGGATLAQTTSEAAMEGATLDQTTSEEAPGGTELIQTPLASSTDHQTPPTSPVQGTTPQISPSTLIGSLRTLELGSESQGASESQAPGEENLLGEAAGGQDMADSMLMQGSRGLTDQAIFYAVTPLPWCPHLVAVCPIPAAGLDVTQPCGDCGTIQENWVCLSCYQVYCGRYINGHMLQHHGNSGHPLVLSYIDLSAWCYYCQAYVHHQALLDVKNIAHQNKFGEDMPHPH

| Structure (SMILES) | Metabolic stability HLM % remaining in 30 min [1] [%] | EC50 [2] [nM] | Metabolic stability MLM % remaining in 30 min [3] [%] | IC50 [4] [nM] |
| --- | --- | --- | --- | --- |
| O=C(NO)c1cnc(N2CCC(CN[C@@H]3C[C@H]3c3ccc(F)cc3)CC2)nc1 [Example 20, 2-(4-((((1R,2S)-2-(4-fluorophenyl)cyclopropyl)amino)methyl)piperidin-1-yl)-N-hydroxypyrimidine-5-carboxamide TFA Salt] | 91 | 3 | 69 | 72 |
| O=C(NO)c1cnc(N2CCC(CN[C@H]3C[C@@H]3c3ccc(F)cc3)CC2)nc1 [Example 21, 2-(4-((((1S,2R)-2-(4-fluorophenyl)cyclopropyl)amino)methyl)piperidin-1-yl)-N-hydroxypyrimidine-5-carboxamide TFA Salt] | 86 | 9 | 51 | 91 |
| O=C(NO)c1ccc(CCCN2CCC(CNC3CC3c3cnn(-c4ccccc4)c3)CC2)cc1 (stereo not shown) [Example 68, N-hydroxy-4-(3-(4-(((2-(1-phenyl-1H-pyrazol-4-yl)cyclopropyl)amino)methyl)piperidin-1-yl)propyl)benzamide TFA Salt] | – | – | – | 104 |
| O=C(NO)c1ccc(CCCn2cnc(CNC3CC3c3ccc(F)c(F)c3)c2)cc1 (stereo not shown) [Example 73, 4-(3-(4-(((2-(3,4-difluorophenyl)cyclopropyl)amino)methyl)-1H-imidazol-1-yl)propyl)-N-hydroxybenzamide TFA Salt] | 52 | 540 | 53 | – |
| O=C(NO)c1ccc(CC(=O)N2CCC(CNC3CC3c3ccccc3)CC2)cc1 (stereo not shown) [Example 84, N-hydroxy-4-(2-oxo-2-(4-(((2-phenylcyclopropyl)amino)methyl)piperidin-1-yl)ethyl)benzamide TFA Salt] | 78 | 112 | 40 | 45 |
| O=C(NO)c1ccc(CC(=O)N2CCC(CN[C@@H]3C[C@H]3c3ccccc3)CC2)cc1 [Example 84A, N-hydroxy-4-(2-oxo-2-(4-((((1R,2S)-2-phenylcyclopropyl)amino)methyl)piperidin-1-yl)ethyl)benzamide TFA Salt] | 78 | 26 | 41 | 22 |
| O=C(NO)c1ccc(CC(=O)N2CCC(CN[C@H]3C[C@@H]3c3ccccc3)CC2)cc1 [Example 84B, N-hydroxy-4-(2-oxo-2-(4-((((1S,2R)-2-phenylcyclopropyl)amino)methyl)piperidin-1-yl)ethyl)benzamide TFA Salt] | 75 | 259 | 45 | 25 |
| O=C(NO)c1ccc(CCS(=O)(=O)N2CCC(CNC3CC3c3ccccc3)CC2)cc1 (stereo not shown) [Example 88, N-hydroxy-4-(2-((4-(((2-phenylcyclopropyl)amino)methyl)piperidin-1-yl)sulfonyl)ethyl)benzamide TFA Salt] | – | – | – | 77 |
| O=C(NO)c1ccc(CN2CCN(C(=O)CNC3CC3c3ccccc3)CC2)cc1 (stereo not shown) [Example 91, N-hydroxy-4-((4-(2-((2-phenylcyclopropyl)amino)acetyl)piperazin-1-yl)methyl)benzamide TFA Salt] | 85 | 468 | 79 | – |
| O=C(NO)c1ccc(CCC(=O)N2CCN(C(=O)CNC3CC3c3ccccc3)CC2)cc1 (stereo not shown) [Example 92, N-hydroxy-4-(3-oxo-3-(4-(2-((2-phenylcyclopropyl)amino)acetyl)piperazin-1-yl)propyl)benzamide TFA Salt] | 95 | 1400 | 91 | – |
| O=C(NO)c1ccc(OCCCN2CCC(CNC3CC3c3ccccc3)CC2)cc1 (stereo not shown) [Example 100, N-hydroxy-4-(3-(4-(((2-phenylcyclopropyl)amino)methyl)piperidin-1-yl)propoxy)benzamide TFA Salt] | 63 | 17 | 57 | – |
| O=C(NO)c1ccc(OCCCNC2CC2c2ccccc2)cc1 (stereo not shown) [Example 101, N-hydroxy-4-(3-((2-phenylcyclopropyl)amino)propoxy)benzamide TFA Salt] | 59 | 29 | 29 | – |
| O=C(NO)c1cc2c(s1)CCN(C(=O)CNC1CC1c1ccc(F)cc1)C2 (stereo not shown) [Example 103, 5-(2-((2-(4-fluorophenyl)cyclopropyl)amino)acetyl)-N-hydroxy-4,5,6,7-tetrahydrothieno [3,2-c]pyridine-2-carboxamide TFA Salt] | 85 | 45 | 53 | 41 |
| O=C(NO)c1cc2c(s1)CCN(C(=O)CN[C@@H]1C[C@H]1c1ccc(F)cc1)C2 [Example 103A, 5-(2-(((1R,2S)-2-(4-fluorophenyl)cyclopropyl)amino)acetyl)-N-hydroxy-4,5,6,7-tetrahydrothieno[3,2-c]pyridine-2-carboxamide TFA Salt] | 87 | 52 | 68 | 22 |
| O=C(NO)c1cc2c(s1)CCN(C(=O)CN[C@H]1C[C@@H]1c1ccc(F)cc1)C2 [Example 103B, 5-(2-(((1S,2R)-2-(4-fluorophenyl)cyclopropyl)amino)acetyl)-N-hydroxy-4,5,6,7-tetrahydrothieno[3,2-c]pyridine-2-carboxamide TFA Salt] | 76 | 15 | 73 | 36 |
| O=C(NO)c1ccc2c(c1)CN(C(=O)CNC1CC1c1ccc(F)cc1)CC2 (stereo not shown) [Example 104, 2-(2-((2-(4-fluorophenyl)cyclopropyl)amino)acetyl)-N-hydroxy-1,2,3,4-tetrahydroisoquinoline-7-carboxamide TFA Salt] | 80 | 269 | 77 | 32 |
| O=C(NO)c1ccc2c(c1)CN(C(=O)CN[C@H]1C[C@@H]1c1ccc(F)cc1)CC2 [Example 104A, 2-(2-(((1S,2R)-2-(4-fluorophenyl)cyclopropyl)amino)acetyl)-N-hydroxy-1,2,3,4-tetrahydroisoquinoline-7-carboxamide TFA Salt] | 74 | 183 | 68 | 53 |
| O=C(NO)c1ccc2c(c1)CN(C(=O)CN[C@@H]1C[C@H]1c1ccc(F)cc1)CC2 [Example 104B, 2-(2-(((1R,2S)-2-(4-fluorophenyl)cyclopropyl)amino)acetyl)-N-hydroxy-1,2,3,4-tetrahydroisoquinoline-7-carboxamide TFA Salt] | 74 | 374 | 70 | 45 |
| O=C(NO)c1ccc2c(c1)CN(C(=O)CCCNC1CC1c1ccc(F)cc1)C2 (stereo not shown) [Example 108, 2-(4-((2-(4-fluorophenyl)cyclopropyl)amino)butanoyl)-N-hydroxyisoindoline-5-carboxamide TFA Salt] | > 95 | 584 | 85 | – |
| Nc1ccccc1NC(=O)c1ccc(CCCN2CCC(CNC3CC3c3ccccc3)CC2)cc1 (stereo not shown) [Example 121, N-(2-aminophenyl)-4-(3-(4-(((2-phenylcyclopropyl)amino)methyl)piperidin-1-yl)propyl)benzamide TFA Salt] | 36 | 3 | 42 | – |
| Nc1ccccc1NC(=O)c1ccc(CCCN2CCC(CNC3CC3c3ccc(F)cc3)CC2)cc1 (stereo not shown) [Example 122, N-(2-aminophenyl)-4-(3-(4-(((2-(4-fluorophenyl)cyclopropyl)amino)methyl)piperidin-1-yl)propyl)benzamide TFA Salt] | 77 | 15 | 72 | – |
| COc1ccc(C2CC2NCC2CCN(CCCc3ccc(C(=O)Nc4ccccc4N)cc3)CC2)cc1 (stereo not shown) [Example 123, N-(2-aminophenyl)-4-(3-(4-(((2-(4methoxyphenyl)cyclopropyl)amino)methyl)piperidin-1-yl)propyl)benzamide TFA Salt] | 82 | 9 | 72 | – |
| Nc1ccccc1NC(=O)c1ccc(CCCN2CCC(CNC3CC3c3ccc(F)c(F)c3)CC2)cc1 (stereo not shown) [Example 124, N-(2-aminophenyl)-4-(3-(4-(((2-(3,4-difluorophenyl)cyclopropyl)amino)methyl)piperidin-1-yl)propyl)benzamide TFA Salt] | 73 | 14 | 68 | – |
| Nc1ccccc1NC(=O)c1ccc(CCCN2CCC(CNC3CC3c3cnn(-c4ccccc4)c3)CC2)cc1 (stereo not shown) [Example 129, N-(2-aminophenyl)-4-(3-(4-(((2-(1-phenyl-1H-pyrazol-4-yl)cyclopropyl)amino)methyl)piperidin-1-yl)propyl)benzamide TFA Salt] | – | – | – | > 10000 |
| Nc1ccccc1NC(=O)c1ccc(CCN2CCC(CNC3CC3c3ccccc3)CC2)cc1 (stereo not shown) [Example 139, N-(2-aminophenyl)-4-(2-(4-(((2-phenylcyclopropyl)amino)methyl)piperidin-1-yl)ethyl)benzamide TFA Salt] | – | – | – | > 10000 |
| Nc1ccccc1NC(=O)c1cnc(CCCN2CCC(CNC3CC3c3ccccc3)CC2)s1 (stereo not shown) [Example 154, N-(2-aminophenyl)-2-(3-(4-(((2-phenylcyclopropyl)amino)methyl)piperidin-1-yl)propyl)thiazole-5-carboxamide TFA Salt] | – | – | – | > 10000 |

Reference: patent US11352322B2, “Cyclopropyl-amide compounds as dual LSD1/HDAC inhibitors” (Jubilant Epicore LLC, priority 2016, dated 2022)
